This note sets out measurements from patent US20100168054A1, “Functionalized Beta 1,6 Glucosamine Disaccharides and Process for Their Preparation” (OM PHARMA, priority 2006, published 2010).

In one experiment the test system is rat mast cells. The experiment is described as follows: Histamine secretion (compound 48/80-stimulated). It counts as cell-based. The settings on record: compound 48/80 0.1 μg/ml, 2 min, 37° C.; read-out: IC50, mean of the reference (5 different tests). From the text: Using an in vitro rat model of mast cell degranulation (proposed by the CRO CEREP, catalog number 2006: 771-c), we aimed to investigate whether the synthetic molecules OM-174-DP (compound 1b) OM-174-MP-PD (19), OM-174-MP-EP (33), OM-174-MP-CM (35c) and OM-174-MP-PR (17) would inhibit histamine secretion by compound 48/80-stimulated mastocytes. The protocol used is briefly summarized below:
The results are expressed as a percent of control specific activity ((measured specific activity/control specific activity)×100) obtained in the presence of the test compounds. The IC50 values (concentration causing a half-maximal inhibition of control specific activity) were determined by non-linear regression analysis of the inhibition curves generated with mean replicate values using Hill equation curve fitting (Y=D+[(A−D)/(1+(C/C50)nH)], where Y=specific activity, D=minimum specific activity, A=maximum specific activity, C=compound concentration, C50=IC50, and nH=slope factor). This analysis was performed using a software developed at Cerep (Hill software) and validated by comparison with data generated by the commercial software SigmaPlot® 4.0 for Windows® (© 1997 by SPSS Inc.).
In each experiment, the reference compound was tested concurrently with the test compounds in order to assess the assay suitability. It was tested at several concentrations (for IC50 value determination), and the data were compared with historical values determined at CEREP. The assay was rendered valid if the suitability criteria were met, in accordance with the corresponding Standard Operating Procedure.

In experiment [1] the test system is human peripheral blood mononuclear cells (PBMC). The experiment in a line: IL-6 secretion by human PBMC (ELISA). In kind it is cell-based. The following applies: for IL6: 24 h. The protocol:
(§1) Peripheral blood from healthy donors (Centre de transfusion, Hôpital Universitaire, Geneva) was centrifuged to get the buffy coat. The buffy coat was mixed with Hanks' balanced saline solution (HBSS, Sigma, Buchs, Switzerland), layered over Ficoll Paque Plus (Amersham Pharmacia) to 1.077 g/mL and centrifuged (2800 rpm, 20° C., 25 min). Cells harvested from the interphase were washed twice in HBSS at 800 rpm for 15 min at room temperature and the pelleted cells were resuspended in HBSS. The cell counts were performed using a Neubauer cell. All cell cultures were performed in RPMI-1640 medium supplemented with penicillin (100 U/mL), streptomycin (100 μg/mL), L-glutamine (2 mmol/L) and 10% fetal calf serum (FCS), all obtained from Sigma. For in vitro stimulation, the cells were cultured at a concentration of 1×10^6 viable cells/well.
(§2) PBMC were incubated at 37° C. and under 5% CO2 atmosphere with the controls (see below) and with the products of the invention at 1, 5, and 20 μg/mL for IL-6, and at 0.2, 2, and 20 μg/mL for TNF-α secretion. Medium: RPMI alone.
(§3) The surpernatants of the cultures were harvested after 24 h and the concentration of IL-6 and TNF-α were measured by an enzyme-linked immunosorbent assay (ELISA) (Human IL-6 and TNF-α ELISA Set, BD OptEIA, San Diego, USA), according to the manufacturer instructions. The detection limits were 10 and 8 pg/mL respectively.
PBMC are incubated at 37° C. and under 5% CO2 atmosphere with the products of the invention.
The supernatants of the cultures are harvested after 24 h and the concentration of IL-6 was measured by an enzyme-linked immunosorbent assay (ELISA) (Human IL-6 ELISA Set, BD OptEIA, San Diego, USA), according to the manufacturer instructions. The detection limit was 10 pg/mL.

For experiment [2] the test system is unchanged. The experiment in a line: TNF-α secretion by human PBMC (ELISA). The settings on record: for TNF-α: 24 h; for TNF-α induction (in words): 0.2, 2, 20 μg/ml. It counts as cell-based. On the procedure:
as §1, §2, §3
(An ELISA detects its analyte on a solid surface through an enzyme-linked reagent.)

For experiment [3], the system named is THP1-Blue cells (express naturally both TLR2 and TLR4). The experiment is described as follows: THP1-Blue NF-κB/AP-1-inducible SEAP reporter. In kind it is cell-based, human. The settings on record: 48 h. The protocol:
A first series of experiment was performed on THP-1 cells, which express naturally both TLR2 and TLR4. THP-1 cells are human peripheral blood monocytic cells. Monocytes play a key role in innate immunity and express most TLRs at various levels. As for the primary cells, THP-1 cells activate NF-κB and other transcription factors in response to TLR ligands
To facilitate analysis of TLR response in monocytes, InvivoGen (Toulouse, France) provides THP-1 clones stably transfected with an NF-κB-inducible reporter system, called THP1-Blue™. THP-1 Blue cells were stably transfected with a reporter plasmid expressing a secreted embryonic alkaline phosphatase (SEAP) gene under the control of a promoter inducible by several transcription factors such as NF-κB and AP-1. Upon TLR stimulation, THP1-Blue™ cells activate transcription factors and subsequently the secretion of SEAP which is easily detectable when using QUANTI-Blue\u2122a medium that turns purple/blue in the presence of SEAP.
The cells were stimulated with the controls and compounds of the invention according to manufacturer's instructions. Results: Increased OD at 625 Nm after 48 Hours: The results for the controls (negative=LPS K12CD25 ultrapure, a TLR4 agonist; and PAM3CSK4=positive, a TLR2 agonist) are provided in the table below. The results (expressed as OD of arbitrary units) show the mean values (from duplicate measures) of Optical density read at 625 nm, 48 h after stimulation at 37° C. with the controls (up to 1000 ng/ml): […]

Another experiment concerns the target T1, TLR2 (Homo sapiens, UniProt O60603).
T1 construct: host or cells: HEK293
The experiment in a line: HEK-TLR2 IL-8 secretion. The following applies: 24 h. In kind it is cell-based. From the text:
(§4) The HEK293 cell line was chosen for its null or low basal expression of the TLR genes. These cells enable efficient monitoring of TLR activity using ELISA analysis such as IL-8 titration or reporter-based systems that monitor TLR-induced NF-κB activation. HEK-TLR2 cells (Invivogen, Toulouse, France) are engineered HEK293 cells stably transfected with multiple genes from the TLR2 pathway that include TLR2 and genes participating in the recognition or involved in the signaling cascade. These cells secrete IL-8 after TLR2 stimulation. The experiments were performed according to manufacturers' instructions. Briefly, 2×10^4 cells/well (200 ul RPMI) are incubated at 37° C. during 3 days (5% CO2). The medium is removed, and 90 ul RPMi+5% FCS is added to the wells Then the agonists and controls are added (10 ul/well). The cells return to the incubator for 24 hours. The supernatants are collected and the IL-8 ELISA is performed according to manufacturer's instructions

In a further experiment the target is T2, TLR2 and CD14 (Homo sapiens, UniProt O60603).
T2 construct: expressed in transfected cells; host or cells: HEK (HEK-TLR2-CD14 cell line)
The experiment in a line: HEK-TLR2-CD14 IL-8 secretion. It counts as cell-based. The settings on record: 24 h.
Excerpt: as §4, with “manufacturer's instructions These preliminary results were confirmed in another cell line expressing concomitantly TLR2 and CD14. The procedure used is similar to the one described just above.” for “manufacturer's instructions”

The next experiment concerns the target T3, TLR4 (Homo sapiens, UniProt O00206+Q9Y6Y9).
T3 construct: expressed in transfected cells; host or cells: HEK293
The experiment in a line: HEK-MD2-TLR4-CD14 IL-8 secretion. In kind it is cell-based. The settings on record: 24 h.
Excerpt: as §4
HEK-MD2-TLR4-CD14 are highly sensitive to LPS. They were obtained by stable transfection of HEK293 cells with the TLR4, MD2 and CD14 genes and an NF-κB-inducible reporter system. They secrete IL-8. We used the same experimental procedure as for the other HEK cell lines described above.

T2 sequence (O60603 21-784): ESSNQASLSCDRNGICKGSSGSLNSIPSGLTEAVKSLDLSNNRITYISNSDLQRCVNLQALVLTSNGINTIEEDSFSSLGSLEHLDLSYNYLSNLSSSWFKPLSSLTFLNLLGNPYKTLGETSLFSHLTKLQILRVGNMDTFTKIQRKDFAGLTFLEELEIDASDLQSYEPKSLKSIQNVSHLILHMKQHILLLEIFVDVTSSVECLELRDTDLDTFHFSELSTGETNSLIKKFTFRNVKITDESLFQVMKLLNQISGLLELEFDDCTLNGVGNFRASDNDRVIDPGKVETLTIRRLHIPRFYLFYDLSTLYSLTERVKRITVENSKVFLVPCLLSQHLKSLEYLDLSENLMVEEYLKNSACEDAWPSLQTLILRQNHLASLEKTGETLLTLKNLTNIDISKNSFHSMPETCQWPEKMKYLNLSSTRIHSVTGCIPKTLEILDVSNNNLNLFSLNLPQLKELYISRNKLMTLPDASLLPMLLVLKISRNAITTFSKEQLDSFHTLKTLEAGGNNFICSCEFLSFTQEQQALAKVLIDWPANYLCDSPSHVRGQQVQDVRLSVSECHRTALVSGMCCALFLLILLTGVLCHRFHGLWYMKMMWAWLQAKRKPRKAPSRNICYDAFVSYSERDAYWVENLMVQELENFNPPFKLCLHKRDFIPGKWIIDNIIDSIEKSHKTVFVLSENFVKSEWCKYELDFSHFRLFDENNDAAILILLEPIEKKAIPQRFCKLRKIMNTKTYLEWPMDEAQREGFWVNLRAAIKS
T1 sequence (O60603 21-784): as above
T3 sequence (O00206 24-839): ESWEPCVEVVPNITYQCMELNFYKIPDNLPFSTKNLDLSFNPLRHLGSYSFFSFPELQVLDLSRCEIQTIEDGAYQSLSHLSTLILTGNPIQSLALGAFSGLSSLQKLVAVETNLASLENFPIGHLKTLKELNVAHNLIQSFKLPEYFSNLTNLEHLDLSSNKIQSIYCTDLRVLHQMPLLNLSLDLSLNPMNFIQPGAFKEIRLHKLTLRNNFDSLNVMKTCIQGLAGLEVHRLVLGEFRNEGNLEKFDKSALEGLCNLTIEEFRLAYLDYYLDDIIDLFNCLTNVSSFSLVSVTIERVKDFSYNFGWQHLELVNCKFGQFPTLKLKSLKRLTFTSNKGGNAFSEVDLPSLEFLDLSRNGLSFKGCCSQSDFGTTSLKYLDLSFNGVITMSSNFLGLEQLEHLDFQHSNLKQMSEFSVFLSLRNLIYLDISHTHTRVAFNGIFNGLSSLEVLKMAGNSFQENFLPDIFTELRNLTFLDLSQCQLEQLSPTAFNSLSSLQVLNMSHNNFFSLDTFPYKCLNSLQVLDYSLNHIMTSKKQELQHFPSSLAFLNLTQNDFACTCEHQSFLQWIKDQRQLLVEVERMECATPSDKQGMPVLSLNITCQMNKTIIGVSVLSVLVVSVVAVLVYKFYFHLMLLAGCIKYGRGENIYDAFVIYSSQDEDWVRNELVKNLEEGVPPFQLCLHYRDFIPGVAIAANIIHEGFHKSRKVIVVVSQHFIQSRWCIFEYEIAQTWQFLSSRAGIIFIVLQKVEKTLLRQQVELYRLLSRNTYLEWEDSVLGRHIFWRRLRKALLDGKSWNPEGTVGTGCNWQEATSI
T3 sequence (Q9Y6Y9 17-160 limits assumed): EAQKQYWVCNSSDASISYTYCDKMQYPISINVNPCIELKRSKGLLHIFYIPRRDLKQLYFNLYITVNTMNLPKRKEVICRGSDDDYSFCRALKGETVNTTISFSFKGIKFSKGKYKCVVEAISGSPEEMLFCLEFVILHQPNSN

In general, IC50 refers to the concentration needed to halve the response being measured. On to `O=C(O)c1cc(=O)c2c(OCC(O)COc3cccc4oc(C(=O)O)cc(=O)c34)cccc2o1` [SCG, reference compound], for which the IC50 with rat mast cells came out at 8.6 µM.
Turning to `CCCCCCCCCCCC(=O)O[C@H](CCCCCCCCCCC)CC(=O)NC1C(OCC2OC(OCCCCCCN)C(NC(=O)C[C@H](O)CCCCCCCCCCC)C(O)C2O)OC(CO)C(OP(=O)(O)O)C1O` (stereo partly drawn) [compound 26, 6-Aminohexyl-2-deoxy-6-O-[2-deoxy-4-O-(dihydroxyphosphoryl)-2-[(R)-3-dodecanoyloxytetradecanoylamino]-β-D-glucopyranosyl]-2-[(R)-3-hydroxytetradecanoylamino]-β-D-glucopyranoside], the IL6 in experiment [1] (1 μg/ml) came out at 269.0 pg/mL; in experiment [1] (5 μg/ml), 1923.2 pg/mL; in experiment [1] (20 μg/ml) it was 8349.3 pg/mL. In addition, the “IL-6 secretion (in words)” value in experiment [1] (1, 5, 20 μg/ml) is “able to induce IL-6 secretion”. Besides, the TNF-α in experiment [2] (0.2 μg/ml) was 29.3 pg/mL; in experiment [2] (2 μg/ml), 1264 pg/mL; in experiment [2] (20 μg/ml) it was 7016 pg/mL. In addition, in experiment [2], the “TNF-α induction (in words)” value is recorded as “induced high levels of TNF-α”.
In the case of `CCCCCCCCCCCC(=O)O[C@H](CCCCCCCCCCC)CC(=O)NC1C(OCC2OC(OCCO)C(NC(=O)C[C@H](O)CCCCCCCCCCC)C(O)C2O)OC(CO)C(OP(=O)(O)O)C1O` (stereo partly drawn) [compound 32, 2-Hydroxyethyl-2-Deoxy-6-O-[2-deoxy-4-O-(dihydroxyphosphoryl)-2-[(R)-3-dodecanoyloxytetradecanoylamino]-β-D-glucopyranosyl]-2-[(R)-3-hydroxytetradecanoylamino]-α-D-glucopyranoside], the values for the TNF-α in experiment [2] (0.2 μg/ml), in experiment [2] (2 μg/ml) and in experiment [2] (20 μg/ml) were 5.5 pg/mL, 7.8 pg/mL and 251 pg/mL, respectively. In addition, the “TNF-α induction (in words)” value in experiment [2] was “induced high levels of TNF-α”.
On the same counts, the results for `CCCCCCCCCCCCCCO[C@@H]1O[C@H](CO[C@@H]2O[C@H](CO)[C@@H](OP(=O)(O)O)[C@H](O)[C@H]2NC(=O)C[C@@H](CCCCCCCCCCC)OC(=O)CCCCCCCCCCC)[C@@H](O)[C@H](O)[C@H]1NC(=O)C[C@H](O)CCCCCCCCCCC` [compound 41c, Tetradecyl-2-Deoxy-6-O-[2-deoxy-4-O-(dihydroxyphosphoryl)-2-[(R)-3-dodecanoyloxytetradecanoylamino]-β-D-glucopyranosyl]-2-[(R)-3-hydroxytetradecanoylamino]-β-D-glucopyranoside] are 570 pg/mL, 6036 pg/mL, 9769 pg/mL and “induced high levels of TNF-α”.
As for PAM3CSK4 [reference compound], the “Optical density read at 625 nm, mean of duplicates” value in experiment [3] (1 ng/ml) was determined as 0.48 OD; in experiment [3] (4 ng/ml), 0.85 OD; in experiment [3] (12 ng/ml), 1.11 OD; in experiment [3] (37 ng/ml), 1.22 OD; in experiment [3] (111 ng/ml), 1.30 OD; in experiment [3] (333 ng/ml), 1.38 OD. In addition, the “Optical density read at 625 nm, mean of duplicates” value in experiment [3] (1000 ng/ml) amounted to 1.35 OD. Besides, the “IL-8 secretion, mean” value turned out to be 1.84 pg/mL on TLR2 (1 ng/ml); 3.89 pg/mL at TLR2 (4 ng/ml); 9.12 pg/mL at TLR2 (12 ng/ml); 18.33 pg/mL at TLR2 (37 ng/ml); 23.93 pg/mL on TLR2 (111 ng/ml); 28.24 pg/mL at TLR2 (333 ng/ml). The “IL-8 secretion, mean” value on TLR2 (1000 ng/ml) is 32.94 pg/mL; at TLR2 and CD14 (1 ng/ml) it was 1.33 pg/mL; on TLR2 and CD14 (4 ng/ml), 2.55 pg/mL; on TLR2 and CD14 (12 ng/ml), 6.78 pg/mL; at TLR2 and CD14 (37 ng/ml), 15.90 pg/mL; at TLR2 and CD14 (111 ng/ml) it was 22.64 pg/mL. Moreover, the “IL-8 secretion, mean” value at TLR2 and CD14 (333 ng/ml) amounted to 33.30 pg/mL; at TLR2 and CD14 (1000 ng/ml), 39.04 pg/mL; on TLR4 (1 ng/ml) it was 1.75 pg/mL; on TLR4 (4 ng/ml) it was 1.78 pg/mL; on TLR4 (12 ng/ml), 1.76 pg/mL; at TLR4 (37 ng/ml), 1.72 pg/mL. Also, the “IL-8 secretion, mean” value came to 1.83 pg/mL on TLR4 (111 ng/ml), 1.87 pg/mL on TLR4 (333 ng/ml) and 2.17 pg/mL at TLR4 (1000 ng/ml).
